# Where a SMILES comes first, the peptide text is derived from it.
# Columns and labels:
# [1] = tested on: Candida glabrata DSY 565; experiment: microbe, parasite or virus in culture; type: cell-based; conditions: RPMI broth microdilution, 35° C., 48 hours, visual
# Procedure, shortened: (§1)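 Broth microdilution in RPMI 1640 with 0.165 mol.l^−1 MOPS; peptide dilutions of 0.625–160 μmol.l^−1 were added to wells, then inoculum at 5×10^2–2.5×10^3 CFU/ml final. Plates were incubated unshaken at 35 °C. MIC was read visually at 48 h as the lowest concentration without visible growth.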
# [2] = tested on: Candida albicans (Olomouc); experiment: microbe, parasite or virus in culture; type: cell-based; conditions: RPMI broth microdilution, 35° C., 48 hours, visual
# Procedure, shortened: as §1
# [3] = tested on: Candida krusei ATCC 6258; experiment: microbe, parasite or virus in culture; type: cell-based; conditions: RPMI broth microdilution, 35° C., 48 hours, visual
# Procedure, shortened: as §1
# [4] = tested on: Candida tropicalis ATCC 750; experiment: microbe, parasite or virus in culture; type: cell-based; conditions: RPMI broth microdilution, 35° C., 48 hours, visual
# Procedure, shortened: as §1
# [5] = tested on: Candida albicans ATCC MYA-2876; experiment: microbe, parasite or virus in culture; type: cell-based; conditions: RPMI broth microdilution, 35° C., 48 hours, visual
# Procedure, shortened: as §1
# [6] = tested on: Candida glabrata ATCC 2001; experiment: microbe, parasite or virus in culture; type: cell-based; conditions: RPMI broth microdilution, 35° C., 48 hours, visual
# Procedure, shortened: as §1
# [7] = tested on: Candida dubliniensis ATCC MYA-646; experiment: microbe, parasite or virus in culture; type: cell-based; conditions: RPMI broth microdilution, 35° C., 48 hours, visual
# Procedure, shortened: as §1
# [8] = tested on: S. aureus (Liberec) biofilm; experiment: Bacterial biofilm, remaining metabolic activity (MTT); type: cell-based, Staphylococcus aureus; conditions: remaining metabolic activity of biofilm, 20 h
# Procedure, shortened: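 Biofilms of S. aureus or P. aeruginosa (Liberec) were grown 24 h at 37° C with shaking in BHI plus 1% glucose from ca. 10^8 CFU/ml inocula. After washing, biofilms were exposed 20 h to peptides at 1–128 μmol.l^−1. Surviving metabolic activity was measured by MTT (40 min, formazan in DMSO, A540) as percent of untreated biofilm, blank-corrected.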
smiles,measurement,setting,value
CCCC[C@H](NC(=O)[C@H](CC(C)C)NC(=O)[C@H](CO)NC(=O)[C@H](CO)NC(=O)[C@H](CCCC)NC(=O)[C@@H](NC(=O)CN)[C@@H](C)CC)C(=O)N[C@@H](CCCCN)C(=O)N[C@@H](CCCCN)C(=O)N[C@@H](CC(C)C)C(=O)N[C@@H](CCCCN)C(=O)N[C@@H](CCCCN)C(=O)N[C@H](C(=O)N[C@H](C(=O)N[C@@H](C)C(=O)N[C@@H](CCCCN)C(N)=O)[C@@H](C)CC)[C@@H](C)CC [V] (HELM PEPTIDE1{G.I.[Nle].S.S.L.[Nle].K.K.L.K.K.I.I.A.K.[am]}$$$$V2.0),Antifungal activity MIC C. glabrata DSY 565,[1],44.0 µM
same,Antifungal activity MIC C. albicans Olomouc,[2],12.0 µM
same,Antifungal activity MIC C. krusei ATCC 6258,[3],5.0 µM
same,Antifungal activity MIC C. tropicalis ATCC 750,[4],1.0 µM
same,Antifungal activity MIC C. albicans ATCC MYA-2876,[5],19.0 µM
same,Antifungal activity MIC C. glabrata ATCC 2001,[6],24.0 µM
same,Antifungal activity MIC C. dubliniensis ATCC MYA-646,[7],26.0 µM
same,Metabolic activity (%) S. aureus (Liberec),[8]; peptide concentration 8 μmol · l^−1,83.0%
same,Metabolic activity (%) S. aureus (Liberec),[8]; peptide concentration 16 μmol · l^−1,71.0%
same,Metabolic activity (%) S. aureus (Liberec),[8]; peptide concentration 32 μmol · l^−1,49.5%
same,Metabolic activity (%) S. aureus (Liberec),[8]; peptide concentration 64 μmol · l^−1,26.0%
same,Metabolic activity (%) S. aureus (Liberec),[8]; peptide concentration 128 μmol · l^−1,0.0%

# — US10160785B2, “Antimicrobial peptides and their use for the treatment of topical infections” (priority 2015, dated 2018)
